Laboratory results: ChEMBL document CHEMBL4507305, “Data for DCP probe TP-024” (2021)

Legend:
[1] = target: Dual specificity mitogen-activated protein kinase kinase 6 (Homo sapiens) (UniProt P52564); details: Compound concentration 1000.0 nM
[2] = target: Serine/threonine-protein kinase D2 (Homo sapiens) (UniProt Q9BZL6); details: Compound concentration 1000.0 nM
[3] = target: Phosphatidylinositol 4,5-bisphosphate 3-kinase catalytic subunit delta isoform (Homo sapiens) (UniProt O00329); details: Compound concentration 1000.0 nM
[4] = target: Ribosomal protein S6 kinase alpha-6 (Homo sapiens) (UniProt Q9UK32); details: Compound concentration 1000.0 nM
[5] = target: Mitogen-activated protein kinase 11 (Homo sapiens) (UniProt Q15759); details: Compound concentration 1000.0 nM
[6] = target: 1-phosphatidylinositol 3-phosphate 5-kinase (Homo sapiens) (UniProt Q9Y2I7); details: Compound concentration 1000.0 nM
[7] = target: Tyrosine-protein kinase Lck (Homo sapiens) (UniProt P06239); details: Compound concentration 1000.0 nM
[8] = target: Serine/threonine-protein kinase MARK2 (Homo sapiens) (UniProt Q7KZI7); details: Compound concentration 1000.0 nM
[9] = target: TRAF2 and NCK-interacting protein kinase (Homo sapiens) (UniProt Q9UKE5); details: Compound concentration 1000.0 nM
[10] = target: Muscle, skeletal receptor tyrosine-protein kinase (Homo sapiens) (UniProt O15146); details: Compound concentration 1000.0 nM
[11] = target: Dual specificity tyrosine-phosphorylation-regulated kinase 2 (Homo sapiens) (UniProt Q92630); details: Compound concentration 1000.0 nM
[12] = target: Ephrin type-B receptor 2 (Homo sapiens) (UniProt P29323); details: Compound concentration 1000.0 nM
Chain of Ephrin type-B receptor 2 (Homo sapiens) (P29323 whole entry): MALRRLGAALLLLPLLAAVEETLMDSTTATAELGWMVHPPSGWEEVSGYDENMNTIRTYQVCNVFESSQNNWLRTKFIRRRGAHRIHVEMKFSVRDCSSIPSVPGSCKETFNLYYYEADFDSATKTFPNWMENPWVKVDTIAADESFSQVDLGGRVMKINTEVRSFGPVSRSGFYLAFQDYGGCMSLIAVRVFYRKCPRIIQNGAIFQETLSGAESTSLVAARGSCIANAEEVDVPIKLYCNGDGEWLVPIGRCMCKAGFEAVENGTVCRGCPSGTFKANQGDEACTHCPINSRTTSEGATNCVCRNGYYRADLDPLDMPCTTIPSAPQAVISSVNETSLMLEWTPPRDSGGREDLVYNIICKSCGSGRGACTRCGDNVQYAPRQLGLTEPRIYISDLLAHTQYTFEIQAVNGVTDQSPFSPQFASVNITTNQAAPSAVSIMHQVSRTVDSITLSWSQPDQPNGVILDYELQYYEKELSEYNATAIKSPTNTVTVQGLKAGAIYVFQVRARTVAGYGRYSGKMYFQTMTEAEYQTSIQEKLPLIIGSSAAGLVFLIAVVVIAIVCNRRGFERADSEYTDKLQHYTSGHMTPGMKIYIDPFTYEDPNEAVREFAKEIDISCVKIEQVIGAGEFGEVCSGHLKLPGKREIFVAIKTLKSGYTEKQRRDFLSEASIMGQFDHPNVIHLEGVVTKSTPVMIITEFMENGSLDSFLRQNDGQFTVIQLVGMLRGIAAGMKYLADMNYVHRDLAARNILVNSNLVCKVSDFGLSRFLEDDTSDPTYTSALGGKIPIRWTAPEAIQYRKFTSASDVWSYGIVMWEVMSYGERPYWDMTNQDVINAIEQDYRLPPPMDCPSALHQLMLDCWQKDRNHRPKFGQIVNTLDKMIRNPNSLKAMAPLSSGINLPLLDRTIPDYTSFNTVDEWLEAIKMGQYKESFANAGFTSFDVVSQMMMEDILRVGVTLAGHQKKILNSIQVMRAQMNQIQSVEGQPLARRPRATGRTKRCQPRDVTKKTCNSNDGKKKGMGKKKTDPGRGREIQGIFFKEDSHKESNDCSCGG

[13] = target: Sigma intracellular receptor 2 (Homo sapiens) (UniProt Q5BJF2); details: Compound concentration 10.0 uM
[14] = target: STE20/SPS1-related proline-alanine-rich protein kinase (Homo sapiens) (UniProt Q9UEW8); details: Compound concentration 1000.0 nM
[15] = target: Receptor tyrosine-protein kinase erbB-4 (Homo sapiens) (UniProt Q15303); details: Compound concentration 1000.0 nM
[16] = target: Serine/threonine-protein kinase 4 (Homo sapiens) (UniProt Q13043); details: Compound concentration 1000.0 nM
Chain of Serine/threonine-protein kinase 4 (Homo sapiens) (Q13043 whole entry): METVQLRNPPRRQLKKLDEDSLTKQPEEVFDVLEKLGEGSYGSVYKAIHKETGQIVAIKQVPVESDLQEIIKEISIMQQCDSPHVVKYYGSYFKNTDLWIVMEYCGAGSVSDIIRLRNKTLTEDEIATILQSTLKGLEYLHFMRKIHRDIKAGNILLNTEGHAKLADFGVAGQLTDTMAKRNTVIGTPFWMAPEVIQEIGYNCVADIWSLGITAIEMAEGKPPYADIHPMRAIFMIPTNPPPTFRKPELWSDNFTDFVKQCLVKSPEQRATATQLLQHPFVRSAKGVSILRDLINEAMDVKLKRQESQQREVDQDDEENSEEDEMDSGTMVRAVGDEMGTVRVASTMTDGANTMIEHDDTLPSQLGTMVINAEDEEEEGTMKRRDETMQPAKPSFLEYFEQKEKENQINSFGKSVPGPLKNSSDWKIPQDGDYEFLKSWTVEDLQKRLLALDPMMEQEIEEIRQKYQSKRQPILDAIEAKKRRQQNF

[17] = target: Myosin light chain kinase (Homo sapiens) (UniProt Q32MK0); details: Compound concentration 1000.0 nM
[18] = target: Myosin light chain kinase, smooth muscle (Homo sapiens) (UniProt Q15746); details: Compound concentration 1000.0 nM
[19] = target: Phosphorylase b kinase regulatory subunit alpha, liver isoform (Homo sapiens) (UniProt P46019); details: Compound concentration 1000.0 nM
[20] = target: Serine/threonine-protein kinase NIM1 (Homo sapiens) (UniProt Q8IY84); details: Compound concentration 1000.0 nM
[21] = target: Mitogen-activated protein kinase kinase kinase 11 (Homo sapiens) (UniProt Q16584); details: Compound concentration 1000.0 nM
Chain of Mitogen-activated protein kinase kinase kinase 11 (Homo sapiens) (Q16584 whole entry, looked up): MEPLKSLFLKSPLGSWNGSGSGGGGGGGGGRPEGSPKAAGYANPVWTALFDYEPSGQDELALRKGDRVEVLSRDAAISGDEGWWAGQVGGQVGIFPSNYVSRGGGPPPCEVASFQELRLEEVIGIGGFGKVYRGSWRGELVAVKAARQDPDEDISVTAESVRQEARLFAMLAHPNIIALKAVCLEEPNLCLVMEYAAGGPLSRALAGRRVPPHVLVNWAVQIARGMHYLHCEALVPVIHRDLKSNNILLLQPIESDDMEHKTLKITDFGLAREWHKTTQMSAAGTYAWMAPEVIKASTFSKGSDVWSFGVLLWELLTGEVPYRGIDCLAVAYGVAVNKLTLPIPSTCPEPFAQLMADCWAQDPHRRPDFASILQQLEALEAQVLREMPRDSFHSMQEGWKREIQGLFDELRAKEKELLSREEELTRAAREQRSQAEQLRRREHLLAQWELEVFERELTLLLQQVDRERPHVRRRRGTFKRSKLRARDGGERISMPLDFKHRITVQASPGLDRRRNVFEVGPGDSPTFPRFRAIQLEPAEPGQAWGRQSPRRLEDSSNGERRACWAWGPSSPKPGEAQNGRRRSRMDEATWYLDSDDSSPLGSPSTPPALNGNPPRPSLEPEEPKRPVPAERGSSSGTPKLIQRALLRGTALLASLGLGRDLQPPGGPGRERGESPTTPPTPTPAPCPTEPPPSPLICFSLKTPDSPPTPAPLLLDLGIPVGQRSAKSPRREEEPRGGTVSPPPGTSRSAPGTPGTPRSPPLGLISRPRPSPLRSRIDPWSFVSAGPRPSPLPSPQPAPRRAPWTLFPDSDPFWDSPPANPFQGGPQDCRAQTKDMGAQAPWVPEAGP

[22] = target: Serine/threonine-protein kinase N2 (Homo sapiens) (UniProt Q16513); details: Compound concentration 1000.0 nM
[23] = target: Serine/threonine-protein kinase MRCK beta (Homo sapiens) (UniProt Q9Y5S2); details: Compound concentration 1000.0 nM
[24] = target: Serine/threonine-protein kinase Nek6 (Homo sapiens) (UniProt Q9HC98); details: Compound concentration 1000.0 nM
Chain of Serine/threonine-protein kinase Nek6 (Homo sapiens) (Q9HC98 whole entry): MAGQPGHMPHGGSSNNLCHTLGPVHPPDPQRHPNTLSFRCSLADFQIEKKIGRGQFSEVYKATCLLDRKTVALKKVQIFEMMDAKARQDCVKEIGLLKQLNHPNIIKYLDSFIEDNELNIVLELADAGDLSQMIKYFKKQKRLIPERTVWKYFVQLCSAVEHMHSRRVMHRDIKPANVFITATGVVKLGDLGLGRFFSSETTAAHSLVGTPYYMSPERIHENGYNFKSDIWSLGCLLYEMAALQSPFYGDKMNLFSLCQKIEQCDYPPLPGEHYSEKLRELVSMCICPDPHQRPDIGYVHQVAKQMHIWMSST

[25] = target: Myosin-IIIa (Homo sapiens) (UniProt Q8NEV4); details: Compound concentration 1000.0 nM
Chain of Myosin-IIIa (Homo sapiens) (Q8NEV4 whole entry): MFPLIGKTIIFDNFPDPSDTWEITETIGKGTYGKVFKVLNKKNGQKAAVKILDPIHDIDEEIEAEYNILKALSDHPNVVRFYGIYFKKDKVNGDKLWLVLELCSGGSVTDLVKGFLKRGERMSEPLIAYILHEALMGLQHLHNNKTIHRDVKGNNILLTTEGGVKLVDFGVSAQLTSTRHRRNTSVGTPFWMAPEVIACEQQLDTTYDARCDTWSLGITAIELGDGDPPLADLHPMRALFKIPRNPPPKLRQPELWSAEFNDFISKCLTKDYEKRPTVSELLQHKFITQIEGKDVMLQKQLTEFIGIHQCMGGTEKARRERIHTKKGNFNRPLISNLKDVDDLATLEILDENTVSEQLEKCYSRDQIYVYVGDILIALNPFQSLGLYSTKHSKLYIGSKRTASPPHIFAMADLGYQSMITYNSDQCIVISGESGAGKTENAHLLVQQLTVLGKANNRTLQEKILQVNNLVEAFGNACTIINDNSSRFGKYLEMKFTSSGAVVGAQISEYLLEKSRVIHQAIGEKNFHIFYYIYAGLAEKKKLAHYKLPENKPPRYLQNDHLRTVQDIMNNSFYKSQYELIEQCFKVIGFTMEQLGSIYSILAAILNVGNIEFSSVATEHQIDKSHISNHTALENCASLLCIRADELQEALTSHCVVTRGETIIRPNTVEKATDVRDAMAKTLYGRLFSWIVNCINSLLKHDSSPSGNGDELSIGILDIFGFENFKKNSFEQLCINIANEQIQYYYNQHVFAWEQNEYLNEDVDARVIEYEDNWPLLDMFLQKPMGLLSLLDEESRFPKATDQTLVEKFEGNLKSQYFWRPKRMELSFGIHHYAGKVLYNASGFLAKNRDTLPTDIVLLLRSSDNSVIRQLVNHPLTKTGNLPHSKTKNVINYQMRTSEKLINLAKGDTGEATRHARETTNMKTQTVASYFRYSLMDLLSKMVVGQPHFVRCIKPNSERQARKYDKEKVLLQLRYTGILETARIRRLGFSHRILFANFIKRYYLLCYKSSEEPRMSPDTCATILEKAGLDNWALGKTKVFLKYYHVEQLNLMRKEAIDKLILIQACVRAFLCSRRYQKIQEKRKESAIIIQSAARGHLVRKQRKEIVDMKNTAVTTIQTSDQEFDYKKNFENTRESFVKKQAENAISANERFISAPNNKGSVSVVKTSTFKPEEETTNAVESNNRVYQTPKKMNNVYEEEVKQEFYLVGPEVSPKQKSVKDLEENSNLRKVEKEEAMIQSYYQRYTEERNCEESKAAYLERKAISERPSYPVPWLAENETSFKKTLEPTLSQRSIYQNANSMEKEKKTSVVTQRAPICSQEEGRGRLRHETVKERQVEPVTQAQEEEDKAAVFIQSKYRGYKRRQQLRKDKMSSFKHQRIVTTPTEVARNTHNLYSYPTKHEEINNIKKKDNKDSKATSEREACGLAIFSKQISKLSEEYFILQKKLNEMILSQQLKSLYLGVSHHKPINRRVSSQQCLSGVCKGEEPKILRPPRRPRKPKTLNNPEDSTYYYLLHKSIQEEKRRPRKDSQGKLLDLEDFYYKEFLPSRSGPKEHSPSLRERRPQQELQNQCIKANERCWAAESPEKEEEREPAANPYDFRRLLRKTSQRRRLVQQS

[26] = target: AP2-associated protein kinase 1 (Homo sapiens) (UniProt Q2M2I8); details: Compound concentration 1000.0 nM
[27] = target: Cyclin-dependent kinase-like 3 (Homo sapiens) (UniProt Q8IVW4); details: Compound concentration 1000.0 nM
[28] = target: 5-hydroxytryptamine receptor 2C (Homo sapiens) (UniProt P28335); details: Compound concentration 10.0 uM
[29] = target: Cyclin-dependent kinase 19 (Homo sapiens) (UniProt Q9BWU1); details: Compound concentration 1000.0 nM
[30] = target: Cyclin-dependent kinase 5 (Homo sapiens) (UniProt Q00535); details: Compound concentration 1000.0 nM
[31] = target: Dual specificity mitogen-activated protein kinase kinase 3 (Homo sapiens) (UniProt P46734); details: Compound concentration 1000.0 nM
[32] = target: BMP-2-inducible protein kinase (Homo sapiens) (UniProt Q9NSY1); details: Compound concentration 1000.0 nM
[33] = target: Vascular endothelial growth factor receptor 3 (Homo sapiens) (UniProt P35916); details: Compound concentration 1000.0 nM
[34] = target: Serine/threonine-protein kinase 3 (Homo sapiens) (UniProt Q13188); details: Compound concentration 1000.0 nM
[35] = target: Non-receptor tyrosine-protein kinase TYK2 (Homo sapiens) (UniProt P29597); details: Compound concentration 1000.0 nM
[36] = target: Serine/threonine-protein kinase VRK2 (Homo sapiens) (UniProt Q86Y07); details: Compound concentration 1000.0 nM
[37] = target: Cyclin-dependent kinase 13 (Homo sapiens) (UniProt Q14004); details: Compound concentration 1000.0 nM
[38] = target: Cyclin-dependent kinase-like 5 (Homo sapiens) (UniProt O76039); details: Compound concentration 1000.0 nM
[39] = target: Calcium/calmodulin-dependent protein kinase kinase 2 (Homo sapiens) (UniProt Q96RR4); details: Compound concentration 1000.0 nM
[40] = tested on: Tyrosine-protein kinase ABL1 (Homo sapiens), P00519 [M351T]; details: Compound concentration 1000.0 nM
[41] = target: Calcium/calmodulin-dependent protein kinase type 1B (Homo sapiens) (UniProt Q6P2M8); details: Compound concentration 1000.0 nM
[42] = target: Myosin light chain kinase family member 4 (Homo sapiens) (UniProt Q86YV6); details: Compound concentration 1000.0 nM
[43] = target: Inhibitor of nuclear factor kappa-B kinase subunit alpha (Homo sapiens) (UniProt O15111); details: Compound concentration 1000.0 nM
Chain of Inhibitor of nuclear factor kappa-B kinase subunit alpha (Homo sapiens) (O15111 whole entry): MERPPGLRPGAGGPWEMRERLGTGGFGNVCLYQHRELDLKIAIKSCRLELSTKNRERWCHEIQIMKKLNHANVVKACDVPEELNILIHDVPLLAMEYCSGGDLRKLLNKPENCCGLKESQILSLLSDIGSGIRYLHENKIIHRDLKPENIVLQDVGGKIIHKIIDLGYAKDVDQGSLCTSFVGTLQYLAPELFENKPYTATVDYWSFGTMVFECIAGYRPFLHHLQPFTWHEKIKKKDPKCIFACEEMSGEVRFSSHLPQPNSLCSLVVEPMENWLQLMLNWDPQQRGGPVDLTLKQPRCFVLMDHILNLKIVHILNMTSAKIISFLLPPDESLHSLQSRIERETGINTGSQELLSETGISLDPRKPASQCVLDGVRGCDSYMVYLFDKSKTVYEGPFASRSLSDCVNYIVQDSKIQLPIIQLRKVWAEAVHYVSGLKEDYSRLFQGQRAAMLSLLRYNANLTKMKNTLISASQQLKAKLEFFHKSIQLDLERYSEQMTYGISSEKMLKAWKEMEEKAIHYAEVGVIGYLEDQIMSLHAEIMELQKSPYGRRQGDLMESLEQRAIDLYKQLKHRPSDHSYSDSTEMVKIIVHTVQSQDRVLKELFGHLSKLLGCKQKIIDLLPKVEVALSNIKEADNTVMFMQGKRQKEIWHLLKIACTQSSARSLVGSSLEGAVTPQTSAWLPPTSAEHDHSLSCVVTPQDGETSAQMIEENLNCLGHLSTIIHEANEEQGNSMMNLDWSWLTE

[44] = tested on: Serine/threonine-protein kinase B-raf (Homo sapiens), P15056 [V600E]; details: Compound concentration 1000.0 nM
[45] = target: Aurora kinase C (Homo sapiens) (UniProt Q9UQB9); details: Compound concentration 1000.0 nM

Cc1cc(-n2nc(Cc3cc(F)cc(C(F)(F)F)c3)nc2C)ccc1C(N)=O [TP-024]
residual activity [1]: 83%
residual activity [2]: 94%
residual activity [3]: 52%
residual activity [4]: 100%
residual activity [5]: 90%
residual activity [6]: 70%
residual activity [7]: 100%
residual activity [8]: 89%
residual activity [9]: 100%
residual activity [10]: 100%
residual activity [11]: 91%
residual activity [12]: 100%
inhibition [13]: -7.3%
residual activity [14]: 100%
residual activity [15]: 67%
residual activity [16]: 100%
residual activity [17]: 92%
residual activity [18]: 100%
residual activity [19]: 100%
residual activity [20]: 100%
residual activity [21]: 84%
residual activity [22]: 100%
residual activity [23]: 100%
residual activity [24]: 95%
residual activity [25]: 100%
residual activity [26]: 100%
residual activity [27]: 83%
inhibition [28]: -5.34%
residual activity [29]: 88%
residual activity [30]: 100%
residual activity [31]: 100%
residual activity [32]: 100%
residual activity [33]: 97%
residual activity [34]: 100%
residual activity [35]: 100%
residual activity [36]: 100%
residual activity [37]: 100%
residual activity [38]: 100%
residual activity [39]: 100%
residual activity [40]: 100%
residual activity [41]: 100%
residual activity [42]: 100%
residual activity [43]: 100%
residual activity [44]: 100%
residual activity [45]: 100%

Cc1nc(Cc2cccc(C(F)(F)F)c2)sc1-c1ccc(C(N)=O)nc1 [TP-024n]
residual activity [1]: 69%
residual activity [2]: 76%
residual activity [3]: 100%
residual activity [4]: 100%
residual activity [5]: 95%
residual activity [6]: 75%
residual activity [7]: 100%
residual activity [8]: 69%
residual activity [9]: 100%
residual activity [10]: 89%
residual activity [11]: 90%
residual activity [12]: 86%
inhibition [13]: -8.52%
residual activity [14]: 100%
residual activity [15]: 74%
residual activity [16]: 100%
residual activity [17]: 81%
residual activity [18]: 95%
residual activity [19]: 100%
residual activity [20]: 100%
residual activity [21]: 100%
residual activity [22]: 91%
residual activity [23]: 39%
residual activity [24]: 90%
residual activity [25]: 98%
residual activity [26]: 96%
residual activity [27]: 100%
inhibition [28]: 0.93%
residual activity [29]: 98%
residual activity [30]: 100%
residual activity [31]: 93%
residual activity [32]: 100%
residual activity [33]: 100%
residual activity [34]: 97%
residual activity [35]: 100%
residual activity [36]: 100%
residual activity [37]: 100%
residual activity [38]: 100%
residual activity [39]: 91%
residual activity [40]: 100%
residual activity [41]: 100%
residual activity [42]: 91%
residual activity [43]: 100%
residual activity [44]: 100%
residual activity [45]: 100%
